Experimental findings from US20230057984A1, “NORMALIZATION OF CULTURE OF CORNEAL ENDOTHELIAL CELLS” (KYOTO PREFECTURAL PUBLIC UNIVERSITY CORPORATION, priority 2011, published 2023) are described below.

One data set relates to HCEC. Nature of the data set: Consecutive treatments of cultured HCEC over several passages, observation of harmful effects. The settings on record: even after several passages.
Data set [1] concerns Cynomolgus monkey corneal endothelial cells. As to the kind of experiment: Culture of monkey corneal endothelial cells with SB431542, cell form by phase-contrast microscope (Example 2). Format: cell-based. Particulars: primate CEC primary culture, base culture medium with 1 μmol/l SB431542; control showed fibroblast phenotype. The procedure: • Cynomolgus monkey corneal endothelial cells (MCEC; source of supply and culturing method): the MCECs were cultured by the improved-type protocol described previously [Koizumi N, et al. (2007) Invest Ophthalmol Vis Sci 48: 4519-4526], [Li W, et al. (2007) Invest Ophthalmol Vis Sci 48: 614-620]. Briefly speaking, eyeballs of cynomolgus monkeys, which were humanely killed for another purpose, were purchased (Nissei Bilis Co., Ltd., Ohtsu, Japan and Keari Co., Ltd., Wakayama, Japan) (the method is described above). The Descemet's membrane including corneal endothelial cells were exfoliated, and the corneal endothelial cells were mechanically exfoliated together with basement membranes, followed by treatment using dispase or collagenase (ROCHE catalog number: 10 103 586 001) and then primary culture. Typically, treatment was performed using 1 mg/mL collagenase A (Roche Applied Science, Penzberg, Germany) at 37° C. for 2 hours. For the culture medium, DMEM (INVITROGEN catalog number 12320) was used with 10% FBS (BIOWEST, catalog number: S1820-500) and 2 ng/ml basic FGF (INVITROGEN, catalog number: 13256-029) added thereto. […] In addition, after the cells were fixed, immunostaining was performed using ZO-1, Na^+/K^+-ATPase as a function-associated marker, followed by observation through a fluorescence microscope. […]

For `NC(=O)c1ccc(-c2nc(-c3ccc4c(c3)OCO4)c(-c3ccccn3)[nH]2)cc1` [SB431542], in the data set on HCEC, the “harmful effects with regard to the forms or functions” value is “not seen any clear, harmful effects”. In data set [1], the “cell form in phase difference images” value is “a true shape of a polygonal cell and a single layer of a contact inhibition type”.
